Experimental findings from EP4745134A1 (Jiangsu Yahong Meditech Co., Ltd., priority 2023, dated 2025) are described below.

Where two headings read alike, the source gives them in different places.

Assay [1] has as its system HCT116-WT cells. In words: Inhibitory activity against cell proliferation (CellTiter Glo, 6 days), HCT116-WT. The format is cell-based. The following applies: 144 h. The gist of the method: (§1)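 Following overnight attachment of 250 cells per well in McCoy's 5A medium with 10% FBS, compounds spanning 8 concentrations (4-fold, top 10000 nM) were applied for 6 days. Growth inhibition IC50 was derived from luminescent ATP signal.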

Assay [2] deals with HCT116 MTAP KO cells. Kind of assay: Inhibitory activity against cell proliferation (CellTiter Glo, 6 days), HCT116 MTAP KO. The note with it: for IC50: Homo sapiens, HCT-116, 144 h; for Selectivity HCT 116-WT/ HCT116 MTAP KO: ratio of IC50 HCT116-WT / HCT116 MTAP KO. The assay is classed as cell-based. In outline:
as §1
For orientation: In ATP-based viability assays light output follows the ATP content of the culture.

Assay [3] has as its target PRMT5-MTA (Homo sapiens, UniProt O14744). Kind of assay: Enzymatic inhibitory activity against PRMT5-MTA (AlphaScreen). The assay is classed as biochemical. The gist of the method: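 PRMT5/[…] (1 nM) was preincubated for 30 min at room temperature with 1 µM […] and 2.5 µM SAM, then exposed to compound (10-point, 3-fold from 1000 nM) for 15 min at 23 °C. Histone H4 substrate (5 nM) was added and reacted for 45 min at 23 °C. Symmetric dimethyl-R3 H4 was detected by AlphaScreen and IC50 calculated.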
(In general: Bead proximity is the source of the signal in Alpha formats.)

[4] abbreviates: HCT116-WT cells, 6 days, CellTiter Glo, read-out: HCT116-WT IC50.
Setting [5] is: HCT116 MTAP KO cells, 6 days, CellTiter Glo, read-out: HCT116 MTAP KO IC50.

Chain of PRMT5-MTA (O14744 whole entry): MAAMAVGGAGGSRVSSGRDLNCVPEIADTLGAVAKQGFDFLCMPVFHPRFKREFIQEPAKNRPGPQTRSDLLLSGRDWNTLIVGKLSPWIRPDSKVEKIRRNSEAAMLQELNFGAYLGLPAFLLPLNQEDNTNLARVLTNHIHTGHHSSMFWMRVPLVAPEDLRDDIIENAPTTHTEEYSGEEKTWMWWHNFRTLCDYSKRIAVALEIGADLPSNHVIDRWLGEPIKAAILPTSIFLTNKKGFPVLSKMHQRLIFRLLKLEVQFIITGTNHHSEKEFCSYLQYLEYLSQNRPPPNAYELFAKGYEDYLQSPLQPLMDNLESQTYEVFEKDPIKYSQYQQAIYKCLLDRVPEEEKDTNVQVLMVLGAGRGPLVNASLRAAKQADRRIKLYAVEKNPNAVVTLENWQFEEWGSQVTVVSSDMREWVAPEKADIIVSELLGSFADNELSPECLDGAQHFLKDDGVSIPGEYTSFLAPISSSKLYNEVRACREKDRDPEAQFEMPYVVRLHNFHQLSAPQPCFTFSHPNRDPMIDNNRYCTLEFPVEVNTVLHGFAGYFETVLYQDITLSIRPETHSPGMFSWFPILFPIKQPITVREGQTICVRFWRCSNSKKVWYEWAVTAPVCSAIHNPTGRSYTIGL
Chain of PRMT5-MTA (Q9BQA1 whole entry partner): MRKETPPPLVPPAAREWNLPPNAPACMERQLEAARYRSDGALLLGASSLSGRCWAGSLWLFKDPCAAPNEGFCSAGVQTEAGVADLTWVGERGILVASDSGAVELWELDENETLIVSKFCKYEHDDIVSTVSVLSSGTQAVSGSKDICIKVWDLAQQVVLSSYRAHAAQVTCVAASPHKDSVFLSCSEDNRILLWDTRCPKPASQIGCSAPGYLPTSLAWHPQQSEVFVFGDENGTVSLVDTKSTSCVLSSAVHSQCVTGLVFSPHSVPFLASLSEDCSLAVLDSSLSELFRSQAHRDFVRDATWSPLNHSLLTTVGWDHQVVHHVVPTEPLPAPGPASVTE

For orientation: IC50 means the concentration needed to halve the response being measured. `Cn1ncc2c(N)nc3cc(Cl)c(C(=O)N4CC5(CN4c4ncc(Cl)cc4F)CC(F)(F)C5)cc3c21` [Example 412, (4-amino-7-chloro-1-methyl-1H-pyrazolo [4,3-c]quinolin-8-yl)(7-(5-chloro-3-fluoropyridin-2-yl)-2,2-difluoro-6,7-diazaspiro[3.4]octan-6-yl)methanone]: the values for the half-inhibitory concentration (IC50) in assay [1] (setting [4]), in assay [2] (setting [5]) and in assay [3] (read-out: IC50) were 179 nM, 10 nM and 0.0062 µM, respectively. In addition, the “Selectivity HCT 116-WT/ HCT116 MTAP KO” value in assay [2] came out at 17.90.

In the case of `Cc1cc2cc(C(=O)N(Cc3ccc(-c4ccoc4)cn3)N(C)c3ncccn3)ccc2nc1N` [Example 156, 2-amino-N-((5-(furan-3-yl)pyridin-2-yl)methyl)-N',3-dimethyl-N'-(pyrimidin-2-yl)quinoline-6-carbohydrazide], the values for the IC50 in assay [1] (setting [4]), in assay [2] (setting [5]) and in assay [3] (read-out: IC50) were 1540 nM, 76 nM and 0.0018 µM, respectively. Further, the “Selectivity HCT 116-WT/ HCT116 MTAP KO” value in assay [2] is reported as 20.26.

Regarding `Cn1ncc2c(N)nc3cc(Cl)c(C(=O)N4CC(C)(F)CN4c4ncc(Cl)cc4F)cc3c21` (centres unmarked) [Example 421, (4-amino-7-chloro-1-methyl-1H-pyrazolo [4,3-c]quinolin-8-yl)(2-(5-chloro-3-fluoropyridin-2-yl)-4-fluoro-4-methylpyrazolidin-1-yl)methanone], the results for the concentration for half-maximal inhibition (IC50) in assay [1] (setting [4]), in assay [2] (setting [5]) and in assay [3] (read-out: IC50) were 669 nM, 29 nM and 0.0033 µM, respectively. The “Selectivity HCT 116-WT/ HCT116 MTAP KO” value in assay [2] was 23.07.

As to `Cc1cc2nc(N)c3cnn(C)c3c2cc1C(=O)N1CC(C)CN1c1cccc(Br)n1` (centres unmarked) [Example 404, (4-amino-1,7-dimethyl-1H-pyrazolo[4,3-c]quinolin-8-yl)(2-(6-bromopyridin-2-yl) -4-methylpyrazolidin-1-yl)methanone], the IC50 is 114 nM in assay [1] (setting [4]), 4.6 nM in assay [2] (setting [5]) and 0.0066 µM in assay [3] (read-out: IC50). Moreover, in assay [2], the “Selectivity HCT 116-WT/ HCT116 MTAP KO” value is 24.78.

Consider `Cc1cc2cc(C(=O)N(Cc3ccc(C4(F)COC4)cn3)N(C)c3ncccn3)ccc2nc1N` [Example 286, 2-amino-N-((5-(3-fluorooxetan-3-yl)pyridin-2-yl)methyl)-N',3-dimethyl-N'-(pyrimidin-2-yl)quinoline-6-carbohydrazide], for which the IC50 was 2420 nM in assay [1] (setting [4]), 91 nM in assay [2] (setting [5]) and 0.0027 µM in assay [3] (read-out: IC50). The “Selectivity HCT 116-WT/ HCT116 MTAP KO” value in assay [2] was found to be 26.60.

Regarding `Cc1cc2nc(N)c3c(c2cc1C(=O)N1CC(C)CN1c1ncccc1F)COC3` (centres unmarked) [Example 512, (4-amino-7-methyl-1,3-dihydrofuro[3,4-c]quinolin-8-yl)(2-(3-fluoropyridin-2-yl)-4-methylpyrazolidin-1-yl)methanone], the values for the IC50 in assay [1] (setting [4]), in assay [2] (setting [5]) and in assay [3] (read-out: IC50) were 5830 nM, 259 nM and 0.005 µM, respectively. Moreover, the “Selectivity HCT 116-WT/ HCT116 MTAP KO” value in assay [2] is given as 22.53.

As to `Cc1cc2cc(C(=O)N(Cc3ccc(-c4scnc4C)cn3)N(C)c3nccc4nccnc34)ccc2nc1N` [Example 185, 2-amino-N',3-dimethyl-N-((5-(4-methylthiazol-5-yl)pyridin-2-yl)methyl)-N'-(pyrido[3,4-b]pyrazin-5-yl)quinoline-6-carbohydrazide], the IC50 stood at 128 nM in assay [1] (setting [4]), 7.5 nM in assay [2] (setting [5]) and 0.0047 µM in assay [3] (read-out: IC50). In assay [2], the “Selectivity HCT 116-WT/ HCT116 MTAP KO” value is recorded as 17.07.

Take `Cc1cc2cc(C(=O)N(Cc3ccc(C(F)(F)F)nn3)N(C)c3ncccn3)ccc2nc1N` [Example 124, 2-amino-N',3-dimethyl-N'-(pyrimidin-2-yl)-N-((6-(trifluoromethyl)pyridazin-3-yl)methyl)quinoline-6-carbohydrazide]: the IC50 was determined as 6450 nM in assay [1] (setting [4]), 220 nM in assay [2] (setting [5]) and 0.0054 µM in assay [3] (read-out: IC50). In assay [2], the “Selectivity HCT 116-WT/ HCT116 MTAP KO” value was 29.33.

On to `Cc1cc2cc(C(=O)N(Cc3ccc(-c4nncs4)cn3)N(c3ncccn3)C3CC3)ccc2nc1N` [Example 250, N-((5-(1,3,4-thiadiazol-2-yl)pyridin-2-yl)methyl)-2-amino-N'-cyclopropyl-3-methyl-N'-(pyrimidin-2-yl)quinoline-6-carbohy drazide], for which the IC50 stood at 820 nM in assay [1] (setting [4]), 41 nM in assay [2] (setting [5]) and 0.0037 µM in assay [3] (read-out: IC50). In assay [2], the “Selectivity HCT 116-WT/ HCT116 MTAP KO” value came out at 20.00.

With `Cc1cc2nc(N)c3cnn(C)c3c2cc1C(=O)N1CC(C)CN1c1ccc(OC(F)(F)F)cn1` (centres unmarked) [Example 384, (4-amino-1,7-dimethyl-1H-pyrazolo[4,3-c]quinolin-8-yl)(4-methyl-2-(5-(trifluoromethoxy)pyridin-2-yl)pyrazolidin-1-yl)m ethanone], the results for the IC50 in assay [1] (setting [4]), in assay [2] (setting [5]) and in assay [3] (read-out: IC50) were 3420 nM, 238 nM and 0.0041 µM, respectively. Also, the “Selectivity HCT 116-WT/ HCT116 MTAP KO” value in assay [2] came to 14.35.

As for `CC1CN(C(=O)c2ccc3nc(N)c4cnn(C)c4c3c2)N(c2ncccc2F)C1` (centres unmarked) [Example 367, (4-amino-1-methyl-1H-pyrazolo[4,3-c]quinolin-8-yl)(2-(3-fluoropyridin-2-yl)-4-methylpyrazolidin-1-yl)methanone], the IC50 in assay [1] (setting [4]) was determined as 5260 nM; in assay [2] (setting [5]) it was 106 nM; in assay [3] (read-out: IC50), 0.0041 µM. Besides, the “Selectivity HCT 116-WT/ HCT116 MTAP KO” value in assay [2] worked out at 49.62.

On to `Cc1cc2nc(N)c3cnn(C)c3c2cc1C(=O)N(C)N1CCc2ccccc21` [Example 279], for which the IC50 in assay [1] (read-out: HCT116-WT IC50 (nM)) was more than 10000 nM; in assay [2] (read-out: HCT116 MTAP KO IC50 (nM)) it was 284 nM; in assay [3], 0.0043 µM.

Turning to `Cc1cc2cc(C(=O)N(Cc3ccc(-c4ccnnc4)cn3)N(C)c3ncccn3)ccc2nc1N` [Example 220, 2-amino-N',3-dimethyl-N-((5-(pyridazin-4-yl)pyridin-2-yl)methyl)-N'-(pyrimidin-2-yl) quinoline-6-carbohydrazide], the IC50 stood at 405 nM in assay [1] (setting [4]), 23 nM in assay [2] (setting [5]) and 0.0012 µM in assay [3] (read-out: IC50). The “Selectivity HCT 116-WT/ HCT116 MTAP KO” value in assay [2] is given as 17.61.

For the molecule `COC1CN(C(=O)c2cc3c(cc2Cl)nc(N)c2cnn(C)c23)N(c2cccc(F)c2F)C1` (centres unmarked) [Example 447, (4-amino-7-chloro-1-methyl-1H-pyrazolo [4,3-c]quinolin-8-yl)(2-(2,3-difluorophenyl)-4-methoxypyrazolidin-1-yl)methanone], the IC50 in assay [1] (setting [4]) turned out to be 315 nM; in assay [2] (setting [5]) it was 24 nM; in assay [3] (read-out: IC50), 0.0068 µM. Moreover, the “Selectivity HCT 116-WT/ HCT116 MTAP KO” value in assay [2] is reported as 13.13.

As to `Cc1cc2nc(N)c3cnn(C)c3c2cc1C(=O)N1CC(C)CN1c1ncc(-c2cscn2)cc1F` (centres unmarked) [Example 488, (4-amino-1,7-dimethyl-1H-pyrazolo[4,3-c]quinolin-8-yl)(2-(3-fluoro-5-(thiazol-4-yl)pyridin-2-yl)-4-methylpyrazolidin-1-yl)methanone], the IC50 was 531 nM in assay [1] (setting [4]), 25 nM in assay [2] (setting [5]) and 0.0053 µM in assay [3] (read-out: IC50). In addition, the “Selectivity HCT 116-WT/ HCT116 MTAP KO” value in assay [2] is given as 21.24.

For the molecule `COC1(c2ccc(CN(C(=O)c3ccc4nc(N)c(C)cc4c3)N(C)c3ncccn3)nc2)COC1` [Example 284, 2-amino-N-((5-(3-methoxyoxetan-3-yl)pyridin-2-yl)methyl)-N',3-dimethyl-N'-(pyrimidin-2-yl)quinoline-6-carbohydrazide], the values for the IC50 in assay [1] (setting [4]), in assay [2] (setting [5]) and in assay [3] (read-out: IC50) were 3440 nM, 194 nM and 0.0023 µM, respectively. Also, the “Selectivity HCT 116-WT/ HCT116 MTAP KO” value in assay [2] is 17.71.

As to `Cc1cc2nc(N)c3cnn(C)c3c2cc1C(=O)N1CCCN1c1ccc(C(F)(F)F)cn1` [Example 338, (4-amino-1,7-dimethyl-1H-pyrazolo[4,3-c]quinolin-8-yl)(2-(5-(trifluoromethyl)pyridin-2-yl)pyrazolidin-1-yl)methanone], the values for the IC50 in assay [1] (setting [4]), in assay [2] (setting [5]) and in assay [3] (read-out: IC50) were 3770 nM, 153 nM and 0.0028 µM, respectively. Besides, the “Selectivity HCT 116-WT/ HCT116 MTAP KO” value in assay [2] stood at 24.64.

With `Cc1cc2nc(N)c3cnn(C)c3c2cc1C(=O)N1CCC(C)N1c1ncc(Br)cc1F` (centres unmarked) [Example 390, (4-amino-1,7-dimethyl-1H-pyrazolo[4,3-c]quinolin-8-yl)(2-(5-bromo-3-fluoropyridin-2-yl)-3-methylpyrazolidin-1-yl)metha none], the IC50 is more than 10000 nM in assay [1] (setting [4]), 233 nM in assay [2] (setting [5]) and 0.0086 µM in assay [3] (read-out: IC50). In addition, the “Selectivity HCT 116-WT/ HCT116 MTAP KO” value in assay [2] is listed as more than 42.92.

In the case of `Cc1cc2nc(N)c3cnn(C)c3c2cc1C(=O)N1CC(C(F)(F)F)CN1c1ncccc1F` (centres unmarked) [Example 350, (4-amino-1,7-dimethyl-1H-pyrazolo[4,3-c]quinolin-8-yl)(2-(3-fluoropyridin-2-yl)-4-(trifluoromethyl)pyrazolidin-1-yl)methanone], the IC50 in assay [1] (setting [4]) is 1030 nM; in assay [2] (setting [5]) it was 29 nM; in assay [3] (read-out: IC50), 0.0035 µM. Besides, the “Selectivity HCT 116-WT/ HCT116 MTAP KO” value in assay [2] was 35.38.

Consider `Cc1cc2nc(N)c3cnn(C)c3c2cc1C(=O)N1CCCN1c1ncc(-c2cscn2)cc1F` [Example 486, (4-amino-1,7-dimethyl-1H-pyrazolo[4,3-c]quinolin-8-yl)(2-(3-fluoro-5-(thiazol-4-yl)pyridin-2-yl)pyrazolidin-1-yl)methanone], for which the IC50 in assay [1] (setting [4]) was 1400 nM; in assay [2] (setting [5]), 34 nM; in assay [3] (read-out: IC50), 0.0068 µM. For the same molecule, the “Selectivity HCT 116-WT/ HCT116 MTAP KO” value in assay [2] stood at 41.12.

`Cc1cc2nc(N)c3cnn(C)c3c2cc1C(=O)N1CC(C)CN1c1ncc(C2CC2)cc1F` (centres unmarked) [Example 489]: the figures for the IC50 in assay [1] (setting [4]), in assay [2] (setting [5]) and in assay [3] were 1410 nM, 54 nM and 0.0048 µM, respectively. Further, the “Selectivity HCT 116-WT/ HCT116 MTAP KO” value in assay [2] came out at 26.04.
